Experimental data published in patent US12691112B2, “FGFR tyrosine kinase inhibitors for the treatment of urothelial carcinoma” (Janssen Pharmaceutica NV, priority 2019, dated 2026).
Values joined by “and” are separate entries in the source; they are usually repeats but may differ in a detail not shown here. Equal values may be shown once. Read-outs that look alike come from different tables or passages of the source.

Tested on: metastatic or surgically unresectable urothelial cancer harboring select FGFR genetic alterations
Conditions: for Disease control rate (CR + PR + SD) / Inevaluable / Objective response rate (CR + PR) / Progressive disease (PD) / Confirmed complete response (CR) / Confirmed partial response (PR) / 6-month progression-free survival rate (95% CI), among responders / 9-month progression-free survival rate (95% CI), among responders / 12-month progression-free survival rate (95% CI), among responders: chemo relapsed/refractory
Text: The study comprises a Screening Phase (molecular screening at any time prior to first dose and study screening within 30 days of first dose), a treatment phase, and a post-treatment follow-up phase. The treatment phase comprises the period from first dose until the end-of-treatment visit. The follow-up phase extends until the subject has died, withdraws consent, is lost to follow-up, or the end of study, whichever comes first.
Included patients were adults with measurable urothelial cancer per Response Evaluation Criteria in Solid Tumors version 1.1.
Patients were required to have at least 1 FGFR2/FGFR3 mutation or fusion per central lab testing of RNA from formalin-fixed, paraffin-embedded tumor samples, using a custom reverse transcriptase polymerase chain reaction assay.
Patients were contacted every 12 weeks for survival assessment.
The study was designed to enroll 180 patients with specified FGFR alterations. Of these, ≥88 were required in the selected regimen. […] Responses were assessed by investigators and an independent radiological review committee. Progression-free survival and overall survival were estimated using Kaplan-Meier product limit method. Data from patients who were progression free and alive or with unknown status were censored at last tumor assessment. Efficacy end points were analysed at primary analysis cut-off.

[1] = 10 mg 7 on/7 off, Mutation and fusion: FGFR3-S249C/FGFR3-Y373C/FGFR2-CASP7/FGFR3-BAIAP2L1/FGFR3-TACC3 V1/FGFR3-TACC3 V3, n=1
[2] = 10 mg 7 on/7 off, Mutation: FGFR3-G370C/FGFR3-S249C, n=1
[3] = 10 mg 7 on/7 off, Mutation: FGFR3-R248C/FGFR3-Y373C, n=1
[4] = 10 mg 7 on/7 off, Mutation: FGFR3-S249C/FGFR3-Y373C, n=1
[5] = Regimen 1, 10 mg intermittent (n=33)
[6] = Regimen 2, 6 mg continuous (n=78)
[7] = Regimen 3, 8 mg continuous (n=99)
[8] = Total (all 3 regimens), Any FGFR alterations, n=189
[9] = Total (all 3 regimens), FGFR fusions (excluding mutations), 6 responders
[10] = Total (all 3 regimens), FGFR fusions (excluding mutations), n=35
[11] = Total (all 3 regimens), FGFR mutations (excluding fusions), 58 responders
[12] = Total (all 3 regimens), FGFR mutations (excluding fusions), n=147
[13] = Total (all 3 regimens), FGFR mutations and fusions, 4 responders
[14] = Total (all 3 regimens), FGFR mutations and fusions, n=7
[15] = Total (all 3 regimens), Fusion: FGFR2-CASP7/FGFR3-BAIAP2L1, n=1
[16] = Total (all 3 regimens), Fusion: FGFR2-CASP7/FGFR3-TACC3 V3, n=1
[17] = Total (all 3 regimens), Mutation and fusion: FGFR3-G370C/FGFR2-BICC1, n=1
[18] = Total (all 3 regimens), Mutation and fusion: FGFR3-G370C/FGFR3-TACC3 V1, n=1
[19] = Total (all 3 regimens), Mutation and fusion: FGFR3-R248C/FGFR3-S249C/FGFR3-TACC3 V1, n=1
[20] = Total (all 3 regimens), Mutation and fusion: FGFR3-R248C/FGFR3-TACC3 V1, n=2
[21] = Total (all 3 regimens), Mutation and fusion: FGFR3-S249C/FGFR3-BAIAP2L1, n=1
[22] = Total (all 3 regimens), Mutation and fusion: FGFR3-S249C/FGFR3-Y373C/FGFR2-CASP7/FGFR3-BAIAP2L1/FGFR3-TACC3 V1/FGFR3-TACC3 V3, n=1
[23] = Total (all 3 regimens), Mutation: FGFR3-G370C/FGFR3-S249C, n=2
[24] = Total (all 3 regimens), Mutation: FGFR3-R248C/FGFR3-Y373C, n=2
[25] = Total (all 3 regimens), Mutation: FGFR3-S249C/FGFR3-Y373C, n=1

For COc1cc(OC)cc(N(CCNC(C)C)c2ccc3ncc(-c4cnn(C)c4)nc3c2)c1 [erdafitinib, N-(3,5-dimethoxy-phenyl)-N′-(1-methylethyl)-N-[3-(1-methyl-1H-pyrazol-4-yl)quinoxalin-6-yl]ethane-1,2-diamine], the “Disease control rate (CR + PR + SD)” value [1] was 1 (100.0%), the Inevaluable [1] was 0% and the “Objective response rate (CR + PR)” value [1] was 0%. The “Progressive disease (PD)” value [1] was 0%, the “Confirmed complete response (CR)” value [2] was 0% and the “Confirmed partial response (PR)” value [2] was 1 (100.0%). For the same compound, the “Disease control rate (CR + PR + SD)” value [2] was 1 (100.0%), the Inevaluable [2] was 0% and the “Objective response rate (CR + PR)” value [2] was 1 (100.0%). For the same compound, the “Progressive disease (PD)” value [2] was 0%, the “Confirmed complete response (CR)” value [3] was 0% and the “Confirmed partial response (PR)” value [3] was 1 (100.0%). For the same compound, the “Disease control rate (CR + PR + SD)” value [3] was 1 (100.0%), the Inevaluable [3] was 0% and the “Objective response rate (CR + PR)” value [3] was 1 (100.0%). The “Progressive disease (PD)” value [3] was 0%, the “Confirmed complete response (CR)” value [4] was 0% and the “Confirmed partial response (PR)” value [4] was 0%. For the same compound, the “Disease control rate (CR + PR + SD)” value [4] was 1 (100.0%), the Inevaluable [4] was 0% and the “Objective response rate (CR + PR)” value [4] was 0%. For the same compound, the “Progressive disease (PD)” value [4] was 0%, the “Complete response per investigator assessment” value [5] was 1 (3) % and the “Not evaluable or unknown per investigator assessment” value [5] was 2 (6) %. The “Objective response rate per investigator assessment” value [5] was 7 (21) %, the “Partial response per investigator assessment” value [5] was 6 (18) % and the “Progressive disease per investigator assessment” value [5] was 6 (18) %. The “Stable disease per investigator assessment” value [5] was 18 (55) %, the “Objective response rate per investigator assessment” value (Regimen 1, 10 mg intermittent, liver metastases) was 3/11 (27) % and the “Complete response per investigator assessment” value [6] was 3 (4) %. For the same compound, the “Not evaluable or unknown per investigator assessment” value [6] was 5(6) %, the “Objective response rate per investigator assessment” value [6] was 27 (35) % and the “Partial response per investigator assessment” value [6] was 24 (31) %. For the same compound, the “Progressive disease per investigator assessment” value [6] was 16 (21) %, the “Objective response rate per investigator assessment” value (Regimen 2, 6 mg continuous, bone metastases) was 6/15 (40) % and the “Not evaluable or unknown per investigator assessment” value [7] was 2 (2.0) %. The “Objective response rate per investigator assessment” value [7] was 40.4% and 40% and 40 (40.4) %, the “Partial response per investigator assessment” value [7] was 37 (37.4) % and the “Progressive disease per investigator assessment” value [7] was 18 (18.2) %. The “Stable disease per investigator assessment” value [7] was 39% and 39 (39.4) %, the “Objective response rate per investigator assessment” value (Regimen 3, 8 mg continuous, with FGFR3 mutations (n=74)) was 48.6% and 36/74 (48.6) % and the “Median DoR (95% CI), investigator assessment” value (Regimen 3, chemotherapy-refractory patients, N = 87) was 5.55 (4.21, 7.00) months. For the same compound, the “Confirmed complete response (CR)” value [8] was 7 (3.7%), the “Confirmed partial response (PR)” value [8] was 61 (32.3%) and the “Disease control rate (CR + PR + SD)” value [8] was 147 (77.8%). For the same compound, the Inevaluable [8] was 8 (4.2%), the “Objective response rate (CR + PR)” value [8] was 68 (36.0%) and the “Progressive disease (PD)” value [8] was 34 (18.0%). For the same compound, the “6-month progression-free survival rate (95% CI), among responders” value [9] was 0.50 (0.11, 0.80), the “9-month progression-free survival rate (95% CI), among responders” value [9] was 0.50 (0.11, 0.80) and the “12-month progression-free survival rate (95% CI), among responders” value [9] was 0.50 (0.11, 0.80). The “Confirmed complete response (CR)” value [10] was 0%, the “Confirmed partial response (PR)” value [10] was 6 (17.1%) and the “Disease control rate (CR + PR + SD)” value [10] was 25 (71.4%). The Inevaluable [10] was 2 (5.7%), the “Objective response rate (CR + PR)” value [10] was 6 (17.1%) and the “Progressive disease (PD)” value [10] was 8 (22.9%). The “6-month progression-free survival rate (95% CI), among responders” value [11] was 0.45 (0.32, 0.58), the “9-month progression-free survival rate (95% CI), among responders” value [11] was 0.29 (0.17, 0.42) and the “12-month progression-free survival rate (95% CI), among responders” value [11] was 0.22 (0.12, 0.35). For the same compound, the “Confirmed complete response (CR)” value [12] was 6 (4.1%), the “Confirmed partial response (PR)” value [12] was 52 (35.4%) and the “Disease control rate (CR + PR + SD)” value [12] was 117 (79.6%). For the same compound, the Inevaluable [12] was 5 (3.4%), the “Objective response rate (CR + PR)” value [12] was 58 (39.5%) and the “Progressive disease (PD)” value [12] was 25 (17.0%). For the same compound, the “6-month progression-free survival rate (95% CI), among responders” value [13] was 0.50 (0.06, 0.84), the “9-month progression-free survival rate (95% CI), among responders” value [13] was 0.50 (0.06, 0.84) and the “12-month progression-free survival rate (95% CI), among responders” value [13] was 0.25 (0.01, 0.67). The “Confirmed complete response (CR)” value [14] was 1 (14.3%), the “Confirmed partial response (PR)” value [14] was 3 (42.9%) and the “Disease control rate (CR + PR + SD)” value [14] was 5 (71.4%). The Inevaluable [14] was 1 (14.3%), the “Objective response rate (CR + PR)” value [14] was 4 (57.1%) and the “Progressive disease (PD)” value [14] was 1 (14.3%). The “Confirmed complete response (CR)” value [15] was 0%, the “Confirmed partial response (PR)” value [15] was 0% and the “Disease control rate (CR + PR + SD)” value [15] was 1 (100.0%). For the same compound, the Inevaluable [15] was 0%, the “Objective response rate (CR + PR)” value [15] was 0% and the “Progressive disease (PD)” value [15] was 0%. The “Confirmed complete response (CR)” value [16] was 0%, the “Confirmed partial response (PR)” value [16] was 0% and the “Disease control rate (CR + PR + SD)” value [16] was 0%. For the same compound, the Inevaluable [16] was 1 (100.0%), the “Objective response rate (CR + PR)” value [16] was 0% and the “Progressive disease (PD)” value [16] was 0%. For the same compound, the “Confirmed complete response (CR)” value [17] was 1 (100.0%), the “Confirmed partial response (PR)” value [17] was 0% and the “Disease control rate (CR + PR + SD)” value [17] was 1 (100.0%). For the same compound, the Inevaluable [17] was 0%, the “Objective response rate (CR + PR)” value [17] was 1 (100.0%) and the “Progressive disease (PD)” value [17] was 0%. The “Confirmed complete response (CR)” value [18] was 0%, the “Confirmed partial response (PR)” value [18] was 1 (100.0%) and the “Disease control rate (CR + PR + SD)” value [18] was 1 (100.0%). The Inevaluable [18] was 0%, the “Objective response rate (CR + PR)” value [18] was 1 (100.0%) and the “Progressive disease (PD)” value [18] was 0%. For the same compound, the “Confirmed complete response (CR)” value [19] was 0%, the “Confirmed partial response (PR)” value [19] was 1 (100.0%) and the “Disease control rate (CR + PR + SD)” value [19] was 1 (100.0%). The Inevaluable [19] was 0%, the “Objective response rate (CR + PR)” value [19] was 1 (100.0%) and the “Progressive disease (PD)” value [19] was 0%. The “Confirmed complete response (CR)” value [20] was 0%, the “Confirmed partial response (PR)” value [20] was 1 (50.0%) and the “Disease control rate (CR + PR + SD)” value [20] was 1 (50.0%). The Inevaluable [20] was 1 (50.0%), the “Objective response rate (CR + PR)” value [20] was 1 (50.0%) and the “Progressive disease (PD)” value [20] was 0%. The “Confirmed complete response (CR)” value [21] was 0%, the “Confirmed partial response (PR)” value [21] was 0% and the “Disease control rate (CR + PR + SD)” value [21] was 0%. For the same compound, the Inevaluable [21] was 0%, the “Objective response rate (CR + PR)” value [21] was 0% and the “Progressive disease (PD)” value [21] was 1 (100.0%). For the same compound, the “Confirmed complete response (CR)” value [22] was 0%, the “Confirmed partial response (PR)” value [22] was 0% and the “Disease control rate (CR + PR + SD)” value [22] was 1 (100.0%). The Inevaluable [22] was 0%, the “Objective response rate (CR + PR)” value [22] was 0% and the “Progressive disease (PD)” value [22] was 0%. For the same compound, the “Confirmed complete response (CR)” value [23] was 0%, the “Confirmed partial response (PR)” value [23] was 1 (50.0%) and the “Disease control rate (CR + PR + SD)” value [23] was 2 (100.0%). For the same compound, the Inevaluable [23] was 0%, the “Objective response rate (CR + PR)” value [23] was 1 (50.0%) and the “Progressive disease (PD)” value [23] was 0%. For the same compound, the “Confirmed complete response (CR)” value [24] was 0%, the “Confirmed partial response (PR)” value [24] was 2 (100.0%) and the “Disease control rate (CR + PR + SD)” value [24] was 2 (100.0%). The Inevaluable [24] was 0%, the “Objective response rate (CR + PR)” value [24] was 2 (100.0%) and the “Progressive disease (PD)” value [24] was 0%. For the same compound, the “Confirmed complete response (CR)” value [25] was 0%, the “Confirmed partial response (PR)” value [25] was 0% and the “Disease control rate (CR + PR + SD)” value [25] was 1 (100.0%). The Inevaluable [25] was 0%, the “Objective response rate (CR + PR)” value [25] was 0% and the “Progressive disease (PD)” value [25] was 0%.
